Data from patent US9695240B2, “Anthracycline derivative conjugates, process for their preparation and their use as antitumor compounds” (Genentech, Inc., priority 2008, dated 2017).

What was measured:
[1] = Stability of the conjugate in ammonium acetate buffer, HPLC; type: physicochemical; conditions: for % release of Compound IIA from the conjugate: 37° C., after four hours incubation
Method: Stability of the conjugates was studied using HPLC analysis. The conjugate was incubated in ammonium acetate buffers at pH 4 and 5.2 at 37° C. Each solution was then taken periodically and applied to an HPLC column using a method reported above. The amount of material released from the conjugate was determined and expressed as percent of released material.
To 0.5 mg of conjugate, ammonium acetate 5 mM pH=5.2 buffer solution (200 mL) was added. The solution was warmed at 37° C. and sample was taken periodically and analyzed by HPLC (method 2). Results are expressed as % of released material (8S,10S)-6,8,11-trihydroxy-8-(hydroxyacetyl)-1-methoxy-10-{[(1S,3R,4aS,9S,9aR,10aS)-9-methoxy-1-methyloctahydro-1H-pyrano[4′,3′:4,5][1,3]oxazolo[2,3-c][1,4]oxazin-3-yl]oxy}-7,8,9,10-tetrahydrotetracene-5,12-dione (Compound IIA) from the conjugate. […]

[2] = system: MCF7 cells; assay: CellTiter-Glo in vitro cell proliferation assay, MCF7; type: cell-based, human; conditions: continuous exposure, 3 days
Description: (§1) Cell-based in vitro assays may be used to measure viability, i.e. proliferation (IC50), cytotoxicity (EC50), and induction of apoptosis (caspase activation) of the ADC. The CellTiter-Glo® Luminescent Cell Viability Assay is a commercially available (Promega Corp., Madison, Wis.), homogeneous assay method based on the recombinant expression of Coleoptera luciferase (U.S. Pat. Nos. 5,583,024; 5,674,713; 5,700,670). This cell proliferation assay determines the number of viable cells in culture based on quantitation of the ATP present, an indicator of metabolically active cells (Crouch et al (1993) J. Immunol. Meth. 160:81-88; U.S. Pat. No. 6,602,677). The CellTiter-Glo® Assay is conducted in 96 well format, making it amenable to automated high-throughput screening (HTS) (Cree et al (1995) AntiCancer Drugs 6:398-404). The homogeneous assay procedure involves adding the single reagent (CellTiter-Glo® Reagent) directly to cells cultured in serum-supplemented medium. Cell washing, removal of medium and multiple pipetting steps are not required. The system detects as few as 15 cells/well in a 384-well format in 10 minutes after adding reagent and mixing.
(§2) The in vitro potency of antibody-drug conjugates was measured by a cell proliferation assay (FIGS. 8-29). The CellTiter-Glo® Luminescent Cell Viability Assay is a commercially available (Promega Corp., Madison, Wis.), homogeneous assay method based on the recombinant expression of Coleoptera luciferase (U.S. Pat. Nos. 5,583,024; 5674,713; 5,700,670). This assay determines the number of viable cells in culture based on quantitation of the ATP present, an indicator of metabolically active cells (Crouch et al (1993) J. Immunol. Meth. 160:81-88; U.S. Pat. No. 6,602,677). The CellTiter-Glo® Assay was conducted in 96 well format, making it amenable to automated high-throughput screening (HTS) (Cree et al (1995) AntiCancer Drugs 6:398-404). The homogeneous assay procedure involves adding the single reagent (CellTiter-Glo® Reagent) directly to cells cultured in serum-supplemented medium.
(§3) The homogeneous “add-mix-measure” format results in cell lysis and generation of a luminescent signal proportional to the amount of ATP present. The substrate, Beetle Luciferin, is oxidatively decarboxylated by recombinant firefly luciferase with concomitant conversion of ATP to AMP and generation of photons. Viable cells are reflected in relative luminescence units (RLU). Data can be recorded by luminometer or CCD camera imaging device. The luminescence output is presented as RLU, measured over time. Alternatively, photons from luminescence can be counted in a scintillation counter in the presence of a scintillant. The light units can be represented then as CPS—counts per second.
(§4) Efficacy of ADC were measured by a cell viability assay employing the following protocol, adapted from CellTiter Glo Luminescent Cell Viability Assay, Promega Corp. Technical Bulletin TB288 and Mendoza et al (2002) Cancer Res. 62:5485-5488: • 1. An aliquot of 50 μl of cell culture containing about 1000 or more cells, including: HER2-expressing and CD22-expressing cells, in medium was deposited in each well of a 96-well, opaque-walled, clear bottom plate. • 2. ADC (50 μl) was added to triplicate experimental wells to final concentration of 10 μg/mL, with “no ADC” control wells receiving medium alone, and incubated for 3 or more days. • 3. The plates were equilibrated to room temperature for approximately 30 minutes. • 4. CellTiter-Glo Reagent (100 μl) was added. • 5. The contents were mixed for 2 minutes on an orbital shaker to induce cell lysis. • 6. The plate was incubated at room temperature for 10 minutes to stabilize the luminescence signal. • 7. Luminescence was recorded and reported in graphs as RLU=relative luminescence units.

[3] = system: SK-BR-3 cells; assay: CellTiter-Glo in vitro cell proliferation assay, SK-BR-3; type: cell-based; conditions: continuous exposure, 3 days
Description: as §1, §2, §3, §4

[4] = system: BT-474 cells; assay: CellTiter-Glo in vitro cell proliferation assay, BT-474; type: cell-based; conditions: continuous exposure, 3 days
Description: as §1, §2, §3, §4

[5] = system: doxorubicin-resistant (DoxRes) HER2 cells; assay: CellTiter-Glo in vitro cell proliferation assay, doxorubicin-resistant HER2; type: cell-based; conditions: continuous exposure, 3 days
Description: as §1, §2, §3, §4

[6] = system: tumor models; conditions: cited from earlier work

SMILES	% release of Compound IIA from the conjugate ([1]; pH 4.2 buffer solution) [%]	% release of Compound IIA from the conjugate ([1]; pH 5.2 buffer solution) [%]	MCF7 in vitro cell viability at 3 days, anti-proliferative activity in words [2]	SK-BR-3 in vitro cell viability at 3 days, anti-proliferative activity in words [3]	BT-474 in vitro cell viability at 3 days, anti-proliferative activity in words [4]	DoxRes HER2 in vitro cell viability at 3 days, anti-proliferative activity in words [5]	antitumor activity in in vivo tumor models, in words [6]	stability at pH 5.2, release of compound of formula (IIA) over time, in words ([1]; pH 5.2, FIG. 1)
COc1cccc2c1C(=O)c1c(O)c3c(c(O)c1C2=O)C[C@@](O)(/C(CO)=N/NC(=O)CCSSC[C@H](NC(C)=O)C(=O)O)C[C@@H]3O[C@H]1C[C@H]2[C@H](O[C@@H]3[C@@H](OC)OCCN32)[C@H](C)O1 [Compound 12, N-acetyl-3-({3-[(2E)-2-{2-hydroxy-1-[(2S,4S)-2,5,12-trihydroxy-7-methoxy-4-{[(1S,3R,4aS,9S,9aR,10aS)-9-methoxy-1-methyloctahydro-1H-pyrano[4′,3′:4,5][1,3]oxazolo[2,3-c][1,4]oxazin-3-yl]oxy}-6,11-dioxo-1,2,3,4,6,11-hexahydrotetracen-2-yl]ethylidene}hydrazinyl]-3-oxopropyl}disulfanyl)-L-alanine]	100	90						
COc1cccc2c1C(=O)c1c(O)c3c(c(O)c1C2=O)C[C@@](O)(C(=O)COC1CCCC(COCC(=O)ON2C(=O)CCC2=O)O1)C[C@@H]3O[C@H]1C[C@H]2[C@H](O[C@@H]3[C@@H](OC)OCCN32)[C@H](C)O1 (stereo partly drawn) [Compound 50, 1-({[(6-{2-oxo-2-[(2S,4S)-2,5,12-trihydroxy-7-methoxy-4-{[(1S,3R,4aS,9S,9aR,10aS)-9-methoxy-1-methyloctahydro-1H-pyrano[4′,3′:4,5][1,3]oxazolo[2,3-c][1,4]oxazin-3-yl]oxy}-6,11-dioxo-1,2,3,4,6,11-hexahydrotetracen-2-yl]ethoxy}tetrahydro-2H-pyran-2-yl)methoxy]acetyl}oxy)pyrrolidine-2,5-dione]			inactive	minimal anti-proliferative activity	inactive	minimal anti-proliferative activity		
COc1cccc2c1C(=O)c1c(O)c3c(c(O)c1C2=O)C[C@@](O)(/C(CO)=N/NC(=O)CCCCCN1C(=O)C=CC1=O)C[C@@H]3O[C@H]1C[C@H]2[C@H](O[C@@H]3[C@@H](OC)OCCN32)[C@H](C)O1 [Compound 52, 6-(2,5-dioxo-2,5-dihydro-1H-pyrrol-1-yl)-N′-{(1E)-2-hydroxy-1-[(2S,4S)-2,5,12-trihydroxy-7-methoxy-4-{[(1S,3R,4aS,9S,9aR,10aS)-9-methoxy-1-methyloctahydro-1H-pyrano[4′,3′:4,5][1,3]oxazolo[2,3-c][1,4]oxazin-3-yl]oxy}-6,11-dioxo-1,2,3,4,6,11-hexahydrotetracen-2-yl]ethylidene}hexanehydrazide]			minial anti-proliferative activity	less potent than free Ant	minimal anti-proliferative activity	less potent than free Ant		
COc1cccc2c1C(=O)c1c(O)c3c(c(O)c1C2=O)C[C@@](O)(C(=O)CO)C[C@@H]3O[C@H]1C[C@H](N2CCO[C@H](OC)C2)[C@H](O)[C@H](C)O1 [nemorubicin, (8S,10S)-6,8,11-trihydroxy-10-((2R,4S,5S,6S)-5-hydroxy-4-((S)-2-methoxymorpholino)-6-methyltetrahydro-2H-pyran-2-yloxy)-8-(2-hydroxyacetyl)-1-methoxy-7,8,9,10-tetrahydrotetracene-5,12-dione]							promising antitumor activity on experimental murine tumors	
COc1cccc2c1C(=O)c1c(O)c3c(c(O)c1C2=O)C[C@@](O)(/C(CO)=N/NC(=O)CCSSc1ccccn1)C[C@@H]3O[C@H]1C[C@H]2[C@H](O[C@@H]3[C@@H](OC)OCCN32)[C@H](C)O1 [Compound 53, N′-{(1E)-2-hydroxy-1-[(2S,4S)-2,5,12-trihydroxy-7-methoxy-4-{[(1S,3R,4aS,9S,9aR,10aS)-9-methoxy-1-methyloctahydro-1H-pyrano[4′,3′:4,5][1,3]oxazolo[2,3-c][1,4]oxazin-3-yl]oxy}-6,11-dioxo-1,2,3,4,6,11-hexahydrotetracen-2-yl]ethylidene}-3-(pyridin-2-yldisulfanyl)propanehydrazide]			minial anti-proliferative activity	less potent than free Ant	minimal anti-proliferative activity	less potent than free Ant		
COc1cccc2c1C(=O)c1c(O)c3c(c(O)c1C2=O)C[C@@](O)(C(=O)COC1CCCC(COCC(=O)NCCN2C(=O)C=CC2=O)O1)C[C@@H]3O[C@H]1C[C@H]2[C@H](O[C@@H]3[C@@H](OC)OCCN32)[C@H](C)O1 (some centres unmarked) [Compound 51]			inactive	minimal anti-proliferative activity	inactive	minimal anti-proliferative activity		
CNC(=O)COC1(OCC(=O)[C@]2(O)Cc3c(O)c4c(c(O)c3[C@@H](O[C@H]3C[C@H]5[C@H](O[C@@H]6[C@@H](OC)OCCN65)[C@H](C)O3)C2)C(=O)c2c(OC)cccc2C4=O)CCCCC1 [Compound 2, N-methyl-2-[(1-{2-oxo-2-[(2S,4S)-2,5,12-trihydroxy-7-methoxy-4-{[(1S,3R,4aS,9S,9aR,10aS)-9-methoxy-1-methyloctahydro-1H-pyrano[4′,3′:4,5][1,3]oxazolo[2,3-c][1,4]oxazin-3-yl]oxy}-6,11-dioxo-1,2,3,4,6,11-hexahydrotetracen-2-yl]ethoxy}cyclohexyl)oxy]acetamide]								increased release of the free compound of the formula (IIA)
